Earlier results on 123 molecules are cited in the CATMoS acute toxicity set (Mansouri et al. 2021).

“And” between values parts separate entries of the source, which are not always exact repeats. Identical values can stand only once.

This data set in a line: rat acute oral toxicity. The settings on record: in vivo.
Usually LD50 stands for the dose expected to kill half of the subjects tested. As to `CCOC(C1=NCC(CC)(CC)CN1)c1cccc(Cl)c1` (stereo not drawn), the LD50 is 110 mg/kg.
On to `CCOC(C1=NCCCCN1)c1ccccc1` (stereo not drawn), for which the LD50 is 375 mg/kg.
On to `CC(C)OP(=S)(OC(C)C)SCSC(C)C`, for which the LD50 is 5 mg/kg.
`CNCCc1ccc(OC(=O)C(C)C)c(OC(=O)C(C)C)c1`: the median lethal dose (LD50) is 2930 mg/kg.
On to `CC(C)(C)N(NC(=O)c1ccc(Cl)cc1)C(=O)c1ccccc1`, for which the LD50 was 2850 mg/kg.
For `CC1(C)C(C=NOCc2ccco2)C1C(=O)OC(C#N)c1cccc(Oc2ccccc2)c1` (stereo not drawn), the LD50 is 91 mg/kg.
For `CC(O)C(c1ccc2c(c1)OCO2)N1CCOCC1` (stereo not drawn), the LD50 is 2470 mg/kg.
`CN(C)C=CC#N`: the median lethal dose (LD50) was 946 mg/kg.
In the case of `Cc1ccc2[nH]c(=S)[nH]c2c1`, the LD50 is 340 mg/kg.
For the molecule `CCCCCCCCCCCCCOCCOCCOCCOCCOCCOCCO`, the LD50 is 1400 mg/kg.
For the molecule `NC(C(=O)O)c1ccccc1` (stereo not drawn), the LD50 was 3030 mg/kg.
For the molecule `C(=NCCCCCCN=Cc1ccco1)c1ccco1`, the LD50 is 490 mg/kg.
In the case of `C=C(C)c1cccc(C(C)(C)N=C=O)c1`, the LD50 is 3100 mg/kg.
With `CC(C)(C)/N=C(\NC#N)Nc1cccnc1`, the LD50 is 278 mg/kg.
With `O=C(CI)NC(=O)CI`, the LD50 was 650 mg/kg.
With `ClC1=C(Cl)C2(Cl)C3CC(Cl)(Cl)CC3C1(Cl)C2(Cl)Cl` (stereo not drawn), the LD50 is 500 mg/kg.
Consider `CNC(=O)C(C)SCCSP(=O)(OC)OC` (stereo not drawn), for which the LD50 was 64 mg/kg.
As for `CC(C)(Oc1ccc(Cl)cc1)C(=O)O`, the LD50 is 897 mg/kg.
For the molecule `CC(C)C1=Nc2ccccc2C1=C(N)c1cccnc1`, the LD50 is 350 mg/kg.
For `CC1(C)OCC(CCl)O1` (stereo not drawn), the LD50 was 115 mg/kg.
Regarding `C[C@H]1c2cccc(O)c2C(=O)C2=C(O)[C@]3(O)C(=O)C(C(N)=O)=C(O)[C@@H](N(C)C)[C@@H]3[C@@H](O)[C@@H]21`, the median lethal dose (LD50) was 1700 mg/kg.
As for `Cc1ccc(OC(=O)c2ccccc2O)cc1`, the LD50 is 1300 mg/kg.
`CC(C)N(CCC(C#N)(c1ccccc1)c1ccccn1)C(C)C` (stereo not drawn): the LD50 is 596 mg/kg.
`CC(=O)OC(C)CC(C)C` (stereo not drawn): the LD50 was 6160 mg/kg.
On to `CCN(CC)CCN(CCN(CC)CC)n1cc(-c2ccc(Cl)cc2)c2cc(Cl)ccc21`, for which the LD50 is 780 mg/kg.
As for `O=C1C(=O)c2ncccc2-c2cccnc21`, the LD50 is 5 mg/kg.
Consider `O=C(CF)Nc1ccccn1`, for which the LD50 was 8 mg/kg.
Regarding `CCNC(=O)Cc1ccccc1`, the LD50 is 756 mg/kg.
Take `Nc1nc2cc(F)ccc2o1`: the LD50 is 1000 mg/kg.
For `ClCC(Cl)=C(Cl)Cl`, the LD50 is 350 mg/kg.
`OC[C@@H](O)[C@H]1O[C@@H]2O[C@H](C(Cl)(Cl)Cl)O[C@@H]2[C@H]1O`: the LD50 is 400 mg/kg.
Take `N#CN=c1ccccn1Cc1ccccc1Cl`: the LD50 is 500 mg/kg.
`NC(=O)C1(N2CCCCC2)CCN(CCCN2c3ccccc3CCc3ccccc32)CC1`: the LD50 was 1020 mg/kg.
`CC1(C)COC1=O`: the LD50 was 1470 mg/kg.
Turning to `Cc1cc(Cl)ccc1OC(C)C(=O)N(C)C` (stereo not drawn), the LD50 is 800 mg/kg.
As to `CCCCCOC(C[n+]1ccccc1)c1ccc(C2CCCCC2)cc1` (stereo not drawn), the LD50 was 250 mg/kg.
Consider `C[C@H]1[C@H](c2ccccc2)OCCN1C`, for which the LD50 was 455 mg/kg.
In the case of `CNC(C)Cc1ccccc1` (racemic), the LD50 is 29 mg/kg.
In the case of `COP(=O)(OC)Oc1nc(Cl)c(Cl)cc1Cl`, the LD50 was 869 mg/kg.
In the case of `CCOC(=O)C(CC)(C(=O)NCCN(CC)CC)c1ccccc1` (stereo not drawn), the LD50 is 610 mg/kg.
For `C=CN(C(C)=O)c1ccccc1`, the LD50 is 2460 mg/kg.
Take `N#CC(C#N)=C(C#N)C#N`: the median lethal dose (LD50) was 5 mg/kg.
For `C=C(C)C1CC=C(C=NO)CC1` (stereo not drawn), the LD50 is 2500 mg/kg.
In the case of `COC(=O)c1ccco1`, the LD50 is 300 mg/kg.
In the case of `CC(=O)O[C@]1(C(C)=O)CC[C@H]2[C@@H]3C=C(Cl)C4=CC(=O)CC[C@]4(C)[C@H]3CC[C@@]21C`, the LD50 was 6400 mg/kg.
As to `CCOc1ccc(N2C(=O)C=CC2=O)cc1`, the LD50 was 630 mg/kg.
Take `Cn1c(=O)sc2cccc(Cl)c21`: the LD50 is 1940 mg/kg.
Turning to `O=C(Cl)c1ccc([N+](=O)[O-])cc1`, the LD50 is 5600 mg/kg.
Consider `CCCSc1ccc2[nH]c(NC(=O)OC)nc2c1`, for which the LD50 was 2400 mg/kg.
For the molecule `CCOP(=O)(OCC)Sc1c(Cl)c(Cl)c(Cl)c(Cl)c1Cl`, the LD50 is 925 mg/kg.
As to `Clc1cccc(C(Cl)(Cl)Cl)n1`, the LD50 was 940 mg/kg.
For `CC(COc1ccc(C(C)(C)C)cc1)OS(=O)OCCCl` (stereo not drawn), the LD50 is 3900 mg/kg.
`CCN(CC)CCC(=O)N1c2ccccc2Sc2ccc(C(F)(F)F)cc21`: the LD50 was 860 mg/kg.
Turning to `Nc1ccc(C(=O)O)c(O)c1`, the LD50 is 8000 mg/kg.
Consider `CCOP(=S)(OCC)OC(C)C`, for which the LD50 is 1000 mg/kg.
For `CC(C)CC(C)Nc1ccc(Nc2ccccc2)cc1` (stereo not drawn), the LD50 was 3580 mg/kg.
Take `O=c1nc(O)n(Cl)c(=O)n1Cl`: the LD50 was 1220 mg/kg.
As for `CC1=CC[C@@H]2C[C@@H](C[C@]3(CC[C@H](C)[C@@H](C)O3)O2)OC(=O)[C@@H]2C=C(C)[C@@H](O)[C@H]3OCC(=CC=C[C@H](C)C1)[C@]32O`, the LD50 was 456 mg/kg.
Turning to `COC(=O)c1cc(C(=O)OC)cc([N+](=O)[O-])c1`, the LD50 was 10000 mg/kg.
In the case of `CCCCNC(=O)NS(=O)(=O)c1ccc(C)cc1`, the LD50 is 2490 mg/kg.
Consider `CC(O)COC(C)(C)C` (stereo not drawn), for which the LD50 was 3770 mg/kg.
On to `COc1cc(OC)nc(NC(=O)NS(=O)(=O)c2cc(NC=O)ccc2C(=O)N(C)C)n1`, for which the LD50 is 3880 mg/kg.
On to `Nc1n[nH]c2ccc(C(F)(F)F)cc12`, for which the LD50 is 90 mg/kg.
For the molecule `O=C(O)c1cc(Cl)cc([N+](=O)[O-])c1Cl`, the LD50 was 2640 mg/kg and 3500 mg/kg.
In the case of `Cc1cc(C(=O)Nc2ccccc2)c(C)o1`, the LD50 is 64 mg/kg.
Turning to `CN(C)C(=O)NC1CCC2C3CCC(C3)C12` (stereo not drawn), the LD50 was 1600 mg/kg.
On to `CCCCC(=O)OC1CCC(N2CCCCC2)CC1` (stereo not drawn), for which the LD50 is 1510 mg/kg.
Consider `O=C(c1ccccc1)c1ccc(O)cc1`, for which the LD50 is 12100 mg/kg.
As to `FC(F)(F)c1nc2c(Cl)c(Br)c(Cl)cc2[nH]1`, the LD50 was 8.78 mg/kg.
Take `Cc1c(Cl)c([N+](=O)[O-])c2nc(C(F)(F)F)[nH]c2c1[N+](=O)[O-]`: the LD50 is 105 mg/kg.
Take `CN(C)CCCC1c2ccccc2Nc2ccc(Cl)cc21` (stereo not drawn): the LD50 is 379 mg/kg.
`CCOC(=O)C1(c2ccccc2)CCCN(C)CC1` (stereo not drawn): the LD50 was 580 mg/kg and 355 mg/kg.
`CC1=CC(=C2C(=O)c3ccccc3C2=O)C=CN1CCN1CCCCC1`: the LD50 was 390 mg/kg.
As to `c1ccc2c(NC3=NCCS3)cccc2c1`, the LD50 is 50 mg/kg.
Turning to `COc1c(Cl)ccc2[nH]c(C(F)(F)F)nc12`, the LD50 was 3.15 mg/kg.
For `CCOC(=O)[N-]c1c[n+](N2CCOCC2)no1`, the LD50 was 1050 mg/kg.
On to `CC(C)COP(=S)(S)OCC(C)C`, for which the LD50 was 3000 mg/kg.
On to `CCCCCCCCCCCCCCCCCC1=NCCN1`, for which the LD50 was 3170 mg/kg and 4600 mg/kg and 1970 mg/kg.
Regarding `N#CC(F)(F)C(F)(F)C(F)(F)C(F)(F)C#N`, the LD50 is 2920 mg/kg.
Turning to `O=C(O)c1c(Cl)c(Cl)c(Cl)c(Cl)c1C(O)=Nc1cccc(Cl)c1Cl`, the median lethal dose (LD50) was 2340 mg/kg.
As to `CC1C(=O)OC2CCN3CC=C(COC(=O)C(C)(O)C1(C)O)C23` (stereo not drawn), the LD50 is 45.5 mg/kg.
Take `O=C1C(Cl)=C(NC(=O)C(Cl)Cl)C(=O)c2ccccc21`: the 50% lethal dose (LD50) was 11700 mg/kg.
In the case of `C=C(C)C(C)=O`, the LD50 was 180 mg/kg.
With `O=S(=O)(O)c1ccccc1O`, the LD50 is 1900 mg/kg.
Regarding `COC(=O)Nc1nc2ccc(C(=O)c3ccc(F)cc3)cc2[nH]1`, the LD50 is 2560 mg/kg.
Take `COc1cc(NC(=O)CC(C)=O)c(OC)cc1Cl`: the LD50 was 850 mg/kg.
With `CON(C)C(=O)CC(SP(=S)(OC)OC)C(=O)N(C)OC` (stereo not drawn), the LD50 was 14 mg/kg.
With `Cc1ccc(N=CN(C)SN(C)C=Nc2ccc(C)cc2C)c(C)c1`, the LD50 is 300 mg/kg.
As for `C=CCOCC1CO1` (stereo not drawn), the LD50 is 1600 mg/kg.
Take `Cc1c(F)c(F)c2nc(C(F)(F)F)[nH]c2c1F`: the LD50 was 3.94 mg/kg.
For the molecule `CCN(CCO)c1ccccc1`, the LD50 was 1640 mg/kg.
Take `ClCC1OC1CCl` (stereo not drawn): the LD50 is 710 mg/kg.
With `COc1ccc2c(c1)OC(C)(C)C(c1ccccc1)=C2c1ccc(OCCO)cc1`, the LD50 was 500 mg/kg.
Regarding `Nc1ncnc2[nH]ncc12`, the LD50 was 141 mg/kg.
Take `CCOc1ccc(N2CC(C(=O)N3CCNCC3)CC2=O)cc1` (stereo not drawn): the LD50 is 550 mg/kg.
On to `CCC(C)c1cnc2nc(N)nc(N)c2c1C` (stereo not drawn), for which the LD50 is 100 mg/kg.
Take `C=Cc1ccc(Cl)cc1`: the LD50 was 5200 mg/kg.
Take `CCCC(=O)OCN(C)N=O`: the LD50 was 800 mg/kg.
For `COP(=S)(OC)SCSc1cc(Cl)ccc1Cl`, the LD50 is 220 mg/kg.
Turning to `CSCc1cnc(C)c(O)c1CO`, the LD50 is 4300 mg/kg.
For the molecule `CC(Cl)(CCl)C(=O)O` (stereo not drawn), the LD50 was 8000 mg/kg.
With `O=C(CCNNC(=O)c1ccncc1)NCc1ccccc1`, the LD50 was 1700 mg/kg.
As to `Cc1nn(C)c(=O)c2noc(C)c12`, the LD50 is 1000 mg/kg.
For the molecule `COP(N)(=S)SC` (stereo not drawn), the LD50 is 250 mg/kg.
Take `CCOP(=S)(OCC)SCc1cccc([N+](=O)[O-])c1`: the LD50 was 250 mg/kg.
With `CC(=O)Nc1cccc2c3c([nH]c12)CCCC3`, the LD50 was 3860 mg/kg.
For `CCCCCCCCCCCCCC[N+](C)(C)Cc1ccccc1`, the LD50 was 426 mg/kg.
Consider `CCN1CN1CC` (stereo not drawn), for which the LD50 is 4000 mg/kg.
For the molecule `O=C(CO)c1coc(=O)c2c(O)cccc12`, the 50% lethal dose (LD50) is 250 mg/kg.
As for `CC(Cl)(Cl)Cl`, the LD50 was 9600 mg/kg.
Regarding `FC(F)C(F)(F)OCC(Cn1cncn1)c1ccc(Cl)cc1Cl` (stereo not drawn), the LD50 was 1030 mg/kg.
For the molecule `CCCCCCCCCCCCCCCCCC[N+](C)(C)Cc1ccccc1`, the median lethal dose (LD50) is 1250 mg/kg.
As for `CN=C(O)O/N=C1/SCOC1C` (stereo not drawn), the LD50 is 12 mg/kg.
Consider `O[C@@H](c1cc(C(F)(F)F)nc2c(Cl)cc(Cl)cc12)[C@@H]1CCCCN1`, for which the LD50 was 1130 mg/kg.
`Nc1ccc2c(O)cc(S(=O)(=O)O)cc2c1`: the LD50 is 11500 mg/kg.
Regarding `CC(C)C(OCCO)C(C)C`, the LD50 is 1070 mg/kg.
Take `O=C(CCCCC(=O)OC1CCCCC1)OC1CCCCC1`: the LD50 was 16000 mg/kg.
For `COc1c(OP(=S)(OC)OC)cnn(C)c1=O`, the LD50 is 2.5 mg/kg.
On to `CCO[Si](C)(C)OCC`, for which the LD50 was 9280 mg/kg.
As for `CCCCC1(COC(=O)CCC(=O)O)C(=O)N(c2ccccc2)N(c2ccccc2)C1=O`, the LD50 is 1700 mg/kg.
In the case of `CCOP(=S)(OCC)SCn1nc(-c2ccccc2)ccc1=O`, the LD50 was 555 mg/kg.
In the case of `CCN(CC)CCOc1ccc2c(c1)C(=O)c1cc(OCCN(CC)CC)ccc1-2`, the 50% lethal dose (LD50) is 852 mg/kg.
As to `COc1ccc(Nc2ccc(OC)cc2)cc1`, the LD50 is 2470 mg/kg.
